Experimental data: patent publication US6362166B1, “Antipicornaviral compounds and methods for their use and preparation” (Agouron Pharmaceuticals, Inc., priority 1996, dated 2002)
Like-named read-outs stand apart in the source and are kept apart here.

Assays:
[1] = target: T1, Recombinant Rhinovirus 3C protease (RVP) serotype-14 (Human rhinovirus 14, UniProt P03303); test: Inhibition of Rhinovirus Protease (fluorescence resonance energy transfer assay), serotype 14; type: biochemical, human rhinovirus (HRV); conditions: for kobs/I: progress curves in enzyme start experiments; for kinact/KI: pH 7.6, read-out: kobs/I
T1 construct: Recombinant Rhinovirus 3C proteases from serotypes 14, 16, 2 or 89; made in house

HI-HeLa cells = test: Cytotoxicity in mock-infected HI-HeLa cells (antirhinoviral assay, XTT); type: cell-based
HRV-14 = test: Antirhinoviral HI-HeLa Cell Culture Assay (Cell Protection Assay, XTT dye reduction); type: cell-based, human rhinovirus (HRV) serotype-14
Method in brief: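 HI-HeLa cells infected with HRV-14 at m.o.i. 0.13 or mock-infected, then incubated with compounds for two days. Cell protection read by XTT/PMS formazan at 450/650 nm; therapeutic index = CC50/EC50.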

[2] = target: T2, Recombinant Rhinovirus 3C protease (RVP) serotype 16 (Human rhinovirus 16, UniProt Q82122); test: Inhibition of Rhinovirus Protease (fluorescence resonance energy transfer assay), serotype 16; type: biochemical, human rhinovirus (HRV); conditions: for kobs/I / kinact/KI: progress curves in enzyme start experiments; for kinact/KI: pH 7.6, read-out: kobs/I
T2 construct: Recombinant Rhinovirus 3C proteases from serotypes 14, 16, 2 or 89; made in house
Procedure: (§1) Stock solution (50 mM, in DMSO) of various compounds were prepared; dilutions were in the same solvent. Recombinant Rhinovirus 3C proteases from serotypes 14, 16, 2 or 89 were prepared by the following standard chromatographic procedures: (1) ion exchange using Q Sepharose Fast Flow from Pharmacia; (2) affinity chromatography using Affi-Gel Blue from Biorad; and (3) sizing using Sephadex G-100 from Pharmacia. Assays contained 2% DMSO, 50 mM tris pH 7.6, 1 mM EDTA, a compound at the indicated concentrations, approximately 1 μM substrate, and 50-100 nM protease. […] The kobs/I values were obtained from reactions initiated by addition of enzyme rather than substrate. RVP activity is measured in the fluorescence resonance energy transfer assay. The substrate was (N-terminal) DABCYL-([…]Gyl)-EDANS. In the uncleaved peptide, the EDANS fluorescence was quenched by the proximal DABCYL moeity. When the peptide was cleaved, the quenching was relieved, and activity was measured as an increase in fluorescence signal.
(§2) In the above table, all data is RVP serotype-14 unless otherwise noted in parentheses. All strains of human rhinovirus (HRV) were purchased from American Type Culture Collection (ATCC), except for serotype 14, which was produced from the infectious cDNA clone constructed and supplied to us by Dr. Roland Rueckert at the Institute for Molecular Virology, University of Wisconsin, Madison, Wisc. […] The data in the column designated kobs/I was measured from progress curves in enzyme start experiments.

[3] = target: T3, Recombinant Rhinovirus 3C protease (RVP) serotype 2 (Human rhinovirus 2, UniProt P04936); test: Inhibition of Rhinovirus Protease (fluorescence resonance energy transfer assay), serotype 2; type: biochemical, human rhinovirus (HRV); conditions: for kobs/I: progress curves in enzyme start experiments
T3 construct: Recombinant Rhinovirus 3C proteases from serotypes 14, 16, 2 or 89; made in house
Procedure: as §1, §2

[4] = Cytotoxicity in mock-infected HI-HeLa cells (antirhinoviral assay, XTT); type: cell-based; conditions: human; mock-infected HI-HeLa cells; two days; XTT; read-out: CC50
[5] = HI-HeLa cells infected with HRV-14, m.o.i. 0.13, two days, XTT, read-out: EC50
[6] = RVP serotype-14, 10 minute preincubation, substrate start, read-out: INHIB (Ki)
[7] = Rhinovirus B, HRV14, 48 h, HI-HeLa cells infected with HRV-14, m.o.i. 0.13, two days, XTT, read-out: EC50

T1 sequence (P03303 1538-1719): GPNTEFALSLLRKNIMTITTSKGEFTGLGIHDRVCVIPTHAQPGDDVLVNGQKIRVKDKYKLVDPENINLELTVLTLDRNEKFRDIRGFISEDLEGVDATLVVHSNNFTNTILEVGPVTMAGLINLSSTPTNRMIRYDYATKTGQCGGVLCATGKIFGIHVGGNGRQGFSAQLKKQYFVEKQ
T2 sequence (Q82122 1511-1693): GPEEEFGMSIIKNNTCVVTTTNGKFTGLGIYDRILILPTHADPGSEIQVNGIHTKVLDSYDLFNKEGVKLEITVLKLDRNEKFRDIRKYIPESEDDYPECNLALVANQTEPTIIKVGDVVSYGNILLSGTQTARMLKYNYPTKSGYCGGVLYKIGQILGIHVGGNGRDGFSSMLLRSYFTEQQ
T3 sequence (P04936 1508-1690): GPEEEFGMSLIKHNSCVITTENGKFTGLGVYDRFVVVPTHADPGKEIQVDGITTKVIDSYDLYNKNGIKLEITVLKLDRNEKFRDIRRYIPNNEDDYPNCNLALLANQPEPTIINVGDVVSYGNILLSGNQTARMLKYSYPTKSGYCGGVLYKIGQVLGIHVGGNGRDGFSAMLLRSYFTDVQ

| SMILES | kobs/I ([1]; RVP serotype-14) | CC50 (HI-HeLa cells) | EC50 (HRV-14; [5]) | kobs/I ([2]; RVP serotype 16) | kobs/I [3] | Ki [1] | kinact/KI [1] | CC50 at 2 days [4] | EC50 (HRV-14; [7]) | also measured |
| --- | --- | --- | --- | --- | --- | --- | --- | --- | --- | --- |
| CC(C)CC(NC(=O)OCc1ccccc1)C(=O)NC(Cc1ccccc1)C(=O)NC(C=C1CCOC1=O)CCC(N)=O (stereo not drawn) [Compound 90] | 10,918 M-1 sec-1 | > 320 µM | 5.2 µM | 3,600 M-1 sec-1 | – | – | – | – | – | – |
| CCOC(=O)/C=C/[C@H](CCC(N)=O)NC(=O)[C@H](Cc1ccccc1)NC(=O)[C@H](CC(=O)N(C)C)NC(=O)OCc1ccccc1 [Compound 158] | 22,600 M-1 sec-1 | > 320 µM | 5.9 µM | 6,400 M-1 sec-1 | 2,200 M-1 sec-1 | – | – | – | – | Ki [1, 6]: 17 µM |
| CCOC(=O)/C=C/[C@H](CCC(N)=O)NC(=O)[C@H](Cc1ccc(F)cc1)NC(=O)[C@H](CC(C)C)NC(=O)OCc1ccccc1 [Compound 35, Ethyl-3-[CBZ-L-Leu-L-(4-F-Phe)-L-Gln]-E-Propenoate] | 46,388 M-1 sec-1 | – | 1.8 µM | 9,177 M-1 sec-1 | 2,357 M-1 sec-1 | – | – | – | – | Ki [1, 6]: 16.5 µM; CC50 (HI-HeLa cells; mock-infected HI-HeLa cells, two days, XTT, read-out: CC50): > 320 µM |
| CC(C)C[C@H](NC(=O)OCc1ccccc1)C(=O)N[C@@H](Cc1ccccc1)C(=O)N[C@H](/C=C/C(=O)N1CCOC1=O)CCC(N)=O [Compound 62] | 600,000 M-1 sec-1 | > 100 µM | 1.6 µM | 300,000 M-1 sec-1 | 600,000 M-1 sec-1 | – | – | – | – | – |
| CCOC(=O)/C=C/[C@H](CCC(N)=O)NC(=O)[C@H](Cc1ccccc1)NC(=O)[C@H](CC(C)C)NC(=O)SC(C)C [Compound 170] | 85,300 M-1 sec-1 | > 100 µM | 0.2 µM | 30,000 M-1 sec-1 | 8,400 M-1 sec-1 | – | – | – | – | – |
| CCOC(=O)/C=C/[C@H](CCC(N)=O)NC(=O)[C@H](Cc1ccccc1)NC(=O)[C@@H](NC(=O)OCc1ccccc1)C(C)C [Compound 146] | 62,500 M-1 sec-1 | > 320 µM | 0.38 µM | 16,900 M-1 sec-1 | 7,790 M-1 sec-1 | – | – | – | – | – |
| CCOC(=O)/C=C/[C@H](CCC(N)=O)NC(=O)[C@H](Cc1ccc(OC)cc1)NC(=O)[C@H](CC(C)C)NC(=O)OCc1ccccc1 [Compound 103] | 29,200 M-1 sec-1 | > 320 µM | 1.7 µM | 3,354 M-1 sec-1 | 1,106 M-1 sec-1 | – | – | – | – | – |
| CCOC(=O)/C=C/[C@H](CCC(N)=O)NC(=O)[C@H](Cc1ccc(C)cc1)NC(=O)[C@@H](NC(=O)SC1CCCC1)C(C)C [Compound 183] | – | – | – | – | – | 0.55 µM | 500000 M⁻¹ s⁻¹ | > 100 µM | – | EC50 (HRV-14; Rhinovirus B, HRV14, 48 h): 0.03 µM; kinact/KI ([2]; RVP serotype 16): 60000 M⁻¹ s⁻¹ |
| CCOC(=O)/C=C/[C@H](CCC(N)=O)NC(=O)[C@H](Cc1ccccc1)NC(=O)[C@H](Cc1ccccc1)NC(=O)SCc1ccccc1 [Compound 161] | 1,086,000 M-1 sec-1 | > 100 µM | 0.17 µM | 126,000 M-1 sec-1 | 200,000 M-1 sec-1 | – | – | – | – | – |
| CC(C)C[C@H](NC(=O)OCc1ccccc1)C(=O)N[C@@H](Cc1ccccc1)C(=O)N[C@H](/C=C/C(=O)N1CCCC1=O)CCC(N)=O [Compound 61] | 125,940 M-1 sec-1 | 56 µM | 0.89 µM | 25,000 M-1 sec-1 | 14,000 M-1 sec-1 | – | – | – | – | – |
| CC(C)C[C@H](NC(=O)OCc1ccccc1)C(=O)N[C@@H](Cc1ccccc1)C(=O)N[C@H](/C=C/C(=O)n1ccc2ccccc21)CCC(N)=O [Compound 89] | – | – | – | – | – | 5 µM | 53400 M⁻¹ s⁻¹ | 29 µM | 1.8 µM | kinact/KI ([2]; RVP serotype 16): 2800 M⁻¹ s⁻¹ |
| CCOC(=O)/C=C/[C@H](CCC(N)=O)NC(=O)[C@H](Cc1ccc(CCO)cc1)NC(=O)[C@H](CC(C)C)NC(=O)OCc1ccccc1 [Compound 139] | 43,140 M-1 sec-1 | > 320 µM | 3.5 µM | 1,259 M-1 sec-1 | 691 M⁻¹ s⁻¹ | – | – | – | – | – |
| CCOC(=O)/C=C/[C@H](CCC(N)=O)NC(=O)[C@H](Cc1ccc(CO)cc1)NC(=O)[C@H](CC(C)C)NC(=O)OCc1ccccc1 [Compound 114] | – | – | – | – | – | ≥ 1 µM | 82300 M⁻¹ s⁻¹ | > 320 µM | 0.55 µM | kinact/KI ([3]; pH 7.6, progress curves in enzyme start experiments, read-out: kobs/I): 1970 M⁻¹ s⁻¹ |
| CCOC(=O)/C=C/[C@H](CCC(N)=O)NC(=O)[C@H](Cc1ccccc1)NC(=O)[C@@H](NC(=O)SCC)C(C)C [Compound 180] | – | – | – | – | – | 0.42 µM | 300000 M⁻¹ s⁻¹ | > 100 µM | 0.056 µM | – |
| CCOC(=O)/C=C/[C@H](CCC(N)=O)NC(=O)[C@H](Cc1ccccc1)NC(=O)[C@H](CC(C)C)NC(=O)c1ccc(Oc2ccccc2)cc1 [Compound 104] | – | – | – | – | – | 2.5 µM | 8000 M⁻¹ s⁻¹ | > 320 µM | 5.2 µM | Ki [2]: 1.5 µM |
| COC(=O)/C=C\[C@H](CCC(N)=O)NC(=O)[C@H](Cc1ccccc1)NC(=O)[C@H](CC(C)C)NC(=O)OCc1ccccc1 [Compound 7, Methyl-3-(CBZ-L-Leu-L-Phe-L-Gln)-Z-Propenoate] | – | – | – | – | – | 9.5 µM | 2400 M⁻¹ s⁻¹ | > 320 µM | 3.2 µM | inhibition at 1 µM ([2]; RVP serotype 16, 1 μM compound, 10 minute preincubation with 50 nM RVP, read-out: INHIB (percent inhibition)): 42% |
| CC(C)C[C@H](NC(=O)OCc1ccccc1)C(=O)N[C@@H](Cc1ccccc1)C(=O)N[C@H](/C=C/C(=O)N(C)O)CCC(N)=O [Compound 138] | – | – | – | – | – | 20 µM | 1770 M⁻¹ s⁻¹ | 41.7 µM | > 41.7 µM | – |
| CCOC(=O)/C=C/[C@H](CCC(N)=O)NC(=O)[C@H](Cc1ccc(C#N)cc1)NC(=O)[C@H](CC(C)C)NC(=O)OCc1ccccc1 [Compound 132] | – | – | – | – | – | 10 µM | 10800 M⁻¹ s⁻¹ | > 320 µM | 5.6 µM | – |
| CC(C)C[C@H](NC(=O)OCc1ccccc1)C(=O)N[C@@H](Cc1ccccc1)C(=O)N[C@H](/C=C/C(=O)OC1CCCCC1)CCC(N)=O [Compound 25] | – | – | – | – | – | 5.5 µM | 3700 M⁻¹ s⁻¹ | > 100 µM | 3.1 µM | – |
| CCOC(=O)/C=C/[C@H](CCC(=O)NC(c1ccccc1)(c1ccccc1)c1ccccc1)NC(=O)[C@H](Cc1ccccc1)NC(=O)[C@H](CC(C)C)NC(=O)OCc1ccccc1 [Compound 2, Ethyl-3-[CBZ-L-Leu-L-Phe-L-(Tr-Gln)]-E-Propenoate] | – | – | – | – | – | 6.6 µM | – | > 320 µM | 100 µM | – |
| CCOC(=O)/C=C/[C@H](CCC(N)=O)NC(=O)[C@H](Cc1ccccc1)NC(=O)[C@H](CC(C)C)NC(=O)SC [Compound 119] | – | – | – | – | – | 5 µM | 69800 M⁻¹ s⁻¹ | > 320 µM | 1.1 µM | – |
